Results: DBAASP
≈ marks a conversion by molar mass, not a printed value. Where “and” joins values, the source holds several entries; their conditions need not be identical. Identical values can stand only once. Values belong to the compound of their own block, whether it stands above or below them.

What was measured:
Test in all cases: ≥ marks a high value that may be exact or a test limit, other limits are often not marked, values filed in µg/mL are converted to µM
[1] = system: Candida albicans
[2] = system: Bacillus subtilis
[3] = system: Staphylococcus aureus
[4] = system: Escherichia coli
[5] = system: Enterococcus faecalis ATCC 29212
[6] = system: Klebsiella pneumoniae ATCC 13883
[7] = system: Escherichia coli DH5alpha
[8] = system: Pseudomonas aeruginosa ATCC 27853
[9] = system: Staphylococcus aureus ATCC 25923
[10] = system: Salmonella enterica subsp. enterica serovar Typhimurium ATCC 14028
[11] = system: Bacillus subtilis 168
[12] = system: Escherichia coli B
[13] = system: Pseudomonas aeruginosa
[14] = system: Klebsiella pneumoniae
[15] = system: Escherichia coli ATCC 25922
[16] = system: Acinetobacter baumannii
[17] = system: Acinetobacter baumannii ATCC 19606
[18] = system: Staphylococcus aureus ATCC 29213
[19] = system: Salmonella enterica subsp. enterica serovar Typhimurium C77-31
[20] = system: Staphylococcus epidermidis ATCC 12228
[21] = system: Escherichia coli UB1005
[22] = system: Staphylococcus aureus ATCC BAA-1556

- MIC [2]: 0.394 µM (≈ 0.65 µg/mL)
- MIC [3]: 1.57 µM (≈ 2.6 µg/mL)
- MIC [4]: 6.9 µM (≈ 11.4 µg/mL)
Structure (SMILES): CC[C@H](C)[C@H](NC(=O)[C@H](CC(C)C)NC(=O)[C@H](C)NC(=O)[C@@H]1CCCN1C(=O)[C@H](CC(C)C)NC(=O)CN)C(=O)N[C@@H](CO)C(=O)N[C@@H](Cc1c[nH]c2ccccc12)C(=O)N[C@H](C(=O)N[C@@H](CCCCN)C(=O)N[C@@H](CCCN=C(N)N)C(=O)N[C@@H](CCCCN)C(=O)N[C@@H](CCCN=C(N)N)C(=O)N[C@@H](CC(C)C)C(N)=O)[C@@H](C)CC [GLPALISWIKRKRL]

- MIC [11]: 3.5 µM (≈ 4.39 µg/mL)
- MIC [3]: 15.5 µM (≈ 19.4 µg/mL)
- MIC [12]: 7 µM (≈ 8.78 µg/mL)
- MIC [13]: 100 µM (≈ 125 µg/mL)
Structure (SMILES): CC[C@H](C)[C@H](NC(=O)[C@H](CC(C)C)NC(=O)[C@H](Cc1cnc[nH]1)NC(=O)CNC(=O)[C@H](CC(C)C)NC(=O)[C@@H](NC(=O)[C@H](CCCCN)NC(=O)[C@H](CO)NC(=O)[C@H](Cc1c[nH]c2ccccc12)NC(=O)[C@H](CCSC)NC(=O)CN)[C@@H](C)CC)C(N)=O [GMWSKILGHLI]

- MIC [2]: 5 µM (≈ 8.8 µg/mL)
- MIC [4]: 9 µM (≈ 15.8 µg/mL)
Structure (SMILES): CC[C@H](C)[C@H](N)C(=O)N[C@@H](CC(N)=O)C(=O)N[C@@H](Cc1c[nH]c2ccccc12)C(=O)N[C@@H](CCCCN)C(=O)N[C@@H](CCCCN)C(=O)N[C@H](C(=O)N[C@@H](Cc1ccccc1)C(=O)N[C@@H](CCC(=O)O)C(=O)N[C@@H](CCCCN)C(=O)N[C@H](C(=O)N[C@@H](CCCCN)C(=O)N[C@@H](CC(=O)O)C(=O)N[C@@H](CC(C)C)C(=O)N[C@H](C(N)=O)C(C)C)C(C)C)[C@@H](C)CC [INWKKIFEKVKDLV]

- MIC [6]: 2.83 µM (≈ 5.83 µg/mL)
- MIC [14]: 22.6 µM (≈ 46.7 µg/mL)
- MIC [15]: 1.41 µM (≈ 2.92 µg/mL)
- MIC [3]: 2.83 µM (≈ 5.83 µg/mL)
- MIC [4]: 32 µM (≈ 66 µg/mL)
- MIC [8]: 11.3 µM (≈ 23.3 µg/mL)
- MIC [13]: 32 µM (≈ 66 µg/mL)
- MIC [16]: 22.6 µM (≈ 46.7 µg/mL)
- MIC [17]: 2 µM (≈ 4.12 µg/mL)
- MIC [9]: 4 µM (≈ 8.25 µg/mL)
Structure (SMILES): CC[C@H](C)[C@H](NC(=O)[C@@H](N)CCCCN)C(=O)N[C@@H](C)C(=O)N[C@@H](CC(C)C)C(=O)N[C@@H](CCCCN)C(=O)N[C@@H](C)C(=O)N[C@@H](CC(C)C)C(=O)N[C@@H](CCCCN)C(=O)N[C@@H](C)C(=O)N[C@@H](CC(C)C)C(=O)N[C@@H](CCCCN)C(=O)N[C@@H](C)C(=O)N[C@@H](CC(C)C)C(=O)NCC(=O)N[C@@H](CCCCN)C(=O)N[C@@H](C)C(=O)N[C@@H](CC(C)C)C(=O)N[C@@H](CCCCN)C(=O)N[C@@H](C)C(=O)N[C@@H](CC(C)C)C(N)=O [KIALKALKALKALGKALKAL]

- MIC [11]: 2.1 µM (≈ 3.11 µg/mL)
- MIC [3]: 41.7 µM (≈ 61.8 µg/mL)
- MIC [12]: 6.3 µM (≈ 9.33 µg/mL)
- MIC [13]: 73.3 µM (≈ 109 µg/mL)
Structure (SMILES): CC[C@H](C)[C@H](NC(=O)[C@H](CC(C)C)NC(=O)[C@H](Cc1cnc[nH]1)NC(=O)CNC(=O)[C@H](CC(C)C)NC(=O)[C@@H](NC(=O)[C@H](CCCCN)NC(=O)[C@H](CO)NC(=O)[C@H](Cc1c[nH]c2ccccc12)NC(=O)[C@H](CCSC)NC(=O)[C@@H](N)CCCCN)[C@@H](C)CC)C(=O)N[C@@H](CCCN=C(N)N)C(N)=O [KMWSKILGHLIR]

- MIC [22]: ≥ 100 µM
Structure (SMILES): CC(C)[C@H](N)C(=O)N[C@H](C(=O)N[C@@H](CCCCN)C(=O)N[C@H](C(=O)N[C@H](C(=O)N[C@H](C(=O)N[C@@H](CCCCN)C(=O)N[C@H](C(=O)N[C@H](C(N)=O)C(C)C)C(C)C)C(C)C)C(C)C)C(C)C)C(C)C [VVKVVVKVV]

Continued, compound first:

Structure (SMILES): CC[C@H](C)[C@H](NC(=O)[C@@H]1CCCN1C(=O)[C@H](CCSC)NC(=O)[C@@H](N)Cc1ccccc1)C(=O)N[C@@H](CC(C)C)C(=O)N[C@@H](CO)C(=O)N[C@H]1CSSC[C@@H](C(=O)O)NC(=O)[C@H](CCCN=C(N)N)NC(=O)[C@H](CCCCN)NC(=O)[C@H](Cc2ccccc2)NC(=O)[C@H](CCCN=C(N)N)NC(=O)[C@H](CO)NC1=O [FMPILSCSRFKRC]
- MIC [1]: 0.693 µM (≈ 1.1 µg/mL)
- MIC [2]: 23.6 µM (≈ 37.5 µg/mL)
- MIC [3]: 5.9 µM (≈ 9.36 µg/mL)
- MIC [4]: 2.95 µM (≈ 4.67 µg/mL)

Structure (SMILES): CC[C@H](C)[C@H](NC(=O)CN)C(=O)NCC(=O)N[C@@H](CCCCN)C(=O)N[C@@H](Cc1ccccc1)C(=O)N[C@@H](CC(C)C)C(=O)N[C@@H](CCCCN)C(=O)N[C@@H](CCCCN)C(=O)N[C@@H](C)C(=O)N[C@@H](CCCCN)C(=O)N[C@@H](CCCCN)C(=O)NCC(=O)N[C@H](C(=O)NCC(=O)N[C@@H](C)C(=O)N[C@H](C(=O)N[C@@H](CC(C)C)C(=O)N[C@@H](CCCCN)C(=O)N[C@H](C(=O)N[C@@H](CC(C)C)C(=O)N[C@H](C(=O)N[C@H](C(=O)NCC(=O)N[C@@H](CC(C)C)C(=O)O)[C@@H](C)O)[C@@H](C)O)C(C)C)C(C)C)[C@@H](C)CC [GIGKFLKKAKKGIGAVLKVLTTGL]
- MIC [5]: 64 µM (≈ 156 µg/mL)
- MIC [6]: 1 µM (≈ 2.44 µg/mL)
- MIC [7]: 1 µM (≈ 2.44 µg/mL)
- MIC [2]: 4 µM (≈ 9.76 µg/mL)
- MIC [8]: 2 µM (≈ 4.88 µg/mL)
- MIC [9]: 2 µM (≈ 4.88 µg/mL)
- MIC [10]: 2 µM (≈ 4.88 µg/mL)

Structure (SMILES): CC[C@H](C)[C@@H]1NC(=O)[C@H](CC(C)C)NC(=O)[C@H](CCC(N)=O)NC(=O)[C@H](Cc2ccc(O)cc2)NC(=O)[C@H](C)NC(=O)[C@@H](NC(=O)[C@H](CCCCN)NC(=O)[C@@H](NC(=O)[C@H](CC(C)C)NC(=O)[C@@H](NC(=O)[C@H](Cc2ccccc2)NC(=O)[C@H](CC(C)C)NC(=O)CN)[C@@H](C)O)[C@@H](C)CC)CSSC[C@@H](C(=O)N[C@@H](CC(N)=O)C(=O)O)NC(=O)[C@H](C)NC(=O)[C@H](C(C)C)NC(=O)[C@H]([C@@H](C)O)NC(=O)[C@@H]2CCCN2C(=O)[C@H](C)NC1=O [GLFTLIKCAYQLIAPTVACN]
- MIC [1]: 4.16 µM (≈ 8.89 µg/mL)
- MIC [2]: 16.6 µM (≈ 35.6 µg/mL)
- MIC [3]: 8.32 µM (≈ 17.8 µg/mL)
- MIC [4]: 16.6 µM (≈ 35.6 µg/mL)

Structure (SMILES): CC[C@H](C)[C@H](NC(=O)[C@H](CC(C)C)NC(=O)[C@H](C)NC(=O)[C@@H]1CCCN1C(=O)[C@H](CO)NC(=O)CN)C(=O)N[C@@H](CO)C(=O)N[C@@H](Cc1c[nH]c2ccccc12)C(=O)N[C@H](C(=O)N[C@@H](CCCCN)C(=O)N[C@@H](CCCN=C(N)N)C(=O)N[C@@H](CCCCN)C(=O)N[C@@H](CCCN=C(N)N)C(=O)N[C@@H](CCC(N)=O)C(=O)N[C@@H](CCC(N)=O)C(N)=O)[C@@H](C)CC [GSPALISWIKRKRQQ]
- MIC [2]: ≥ 38.2 µM
- MIC [3]: 50.9 µM (≈ 90 µg/mL)
- MIC [4]: > 153 µM

Structure (SMILES): CC(C)C[C@H](NC(=O)[C@H](CCCN=C(N)N)NC(=O)[C@H](CC(N)=O)NC(=O)[C@H](C)NC(=O)[C@H](CCCN=C(N)N)NC(=O)[C@H](CC(C)C)NC(=O)[C@H](Cc1c[nH]c2ccccc12)NC(=O)[C@H](CC(C)C)NC(=O)[C@H](CCCN=C(N)N)NC(=O)[C@H](CCCN=C(N)N)NC(=O)[C@H](CC(C)C)NC(=O)[C@H](CC(C)C)NC(=O)[C@H](CCCN=C(N)N)NC(=O)[C@H](CC(N)=O)NC(=O)[C@H](C)NC(=O)[C@H](CCCN=C(N)N)NC(=O)[C@H](CC(C)C)NC(=O)[C@H](Cc1c[nH]c2ccccc12)NC(=O)[C@H](CC(C)C)NC(=O)[C@H](CCCN=C(N)N)NC(=O)[C@H](CCCN=C(N)N)NC(=O)[C@@H](N)CC(C)C)C(N)=O [LRRLWLRANRLLRRLWLRANRL]
- MIC [5]: 2 µM and 4 µM
- MIC [15]: 4 µM (≈ 11.7 µg/mL)
- MIC [18]: 2 µM and 4 µM
- MIC [19]: 2 µM and 4 µM
- MIC [8]: 4 µM (≈ 11.7 µg/mL)
- MIC [20]: 2 µM and 4 µM

Structure (SMILES): CC(C)C[C@H](NC(=O)[C@H](CCCN=C(N)N)NC(=O)[C@H](Cc1c[nH]c2ccccc12)NC(=O)[C@H](CCCN=C(N)N)NC(=O)[C@@H](NC(=O)[C@H](CCCCN)NC(=O)[C@H](Cc1c[nH]c2ccccc12)NC(=O)[C@H](CCCN=C(N)N)NC(=O)[C@H](CC(C)C)NC(=O)[C@H](Cc1c[nH]c2ccccc12)NC(=O)[C@@H](N)CCCN=C(N)N)[C@@H](C)O)C(=O)N[C@@H](CCCCN)C(N)=O [RWLRWKTRWRLK]
- MIC [15]: 2 µM (≈ 3.57 µg/mL)
- MIC [18]: 4 µM (≈ 7.14 µg/mL)
- MIC [19]: 8 µM (≈ 14.3 µg/mL)
- MIC [21]: 4 µM (≈ 7.14 µg/mL)
- MIC [9]: 16 µM (≈ 28.5 µg/mL)
- MIC [20]: 16 µM (≈ 28.5 µg/mL)

Structure (SMILES): CC(C)C[C@H](NC(=O)[C@H](Cc1c[nH]c2ccccc12)NC(=O)[C@H](Cc1c[nH]c2ccccc12)NC(=O)[C@H](CCCN=C(N)N)NC(=O)[C@H](Cc1c[nH]c2ccccc12)NC(=O)[C@H](Cc1c[nH]c2ccccc12)NC(=O)[C@H](CC(C)C)NC(=O)[C@H](Cc1c[nH]c2ccccc12)NC(=O)[C@@H](N)Cc1c[nH]c2ccccc12)C(N)=O [WWLWWRWWL]
- MIC [22]: 6.25 µM (≈ 9.48 µg/mL)
